{"source": "patent US20250154607A1", "about": "“ISOTHERMAL AMPLIFICATION OF PATHOGENS” (priority 2021, published 2025)", "key": {"[1]": {"molecular_target": "9° Nm™ DNA polymerase (Thermococcus sp., UniProt Q56366, E143D)", "sequence (Q56366 whole entry E143D)": "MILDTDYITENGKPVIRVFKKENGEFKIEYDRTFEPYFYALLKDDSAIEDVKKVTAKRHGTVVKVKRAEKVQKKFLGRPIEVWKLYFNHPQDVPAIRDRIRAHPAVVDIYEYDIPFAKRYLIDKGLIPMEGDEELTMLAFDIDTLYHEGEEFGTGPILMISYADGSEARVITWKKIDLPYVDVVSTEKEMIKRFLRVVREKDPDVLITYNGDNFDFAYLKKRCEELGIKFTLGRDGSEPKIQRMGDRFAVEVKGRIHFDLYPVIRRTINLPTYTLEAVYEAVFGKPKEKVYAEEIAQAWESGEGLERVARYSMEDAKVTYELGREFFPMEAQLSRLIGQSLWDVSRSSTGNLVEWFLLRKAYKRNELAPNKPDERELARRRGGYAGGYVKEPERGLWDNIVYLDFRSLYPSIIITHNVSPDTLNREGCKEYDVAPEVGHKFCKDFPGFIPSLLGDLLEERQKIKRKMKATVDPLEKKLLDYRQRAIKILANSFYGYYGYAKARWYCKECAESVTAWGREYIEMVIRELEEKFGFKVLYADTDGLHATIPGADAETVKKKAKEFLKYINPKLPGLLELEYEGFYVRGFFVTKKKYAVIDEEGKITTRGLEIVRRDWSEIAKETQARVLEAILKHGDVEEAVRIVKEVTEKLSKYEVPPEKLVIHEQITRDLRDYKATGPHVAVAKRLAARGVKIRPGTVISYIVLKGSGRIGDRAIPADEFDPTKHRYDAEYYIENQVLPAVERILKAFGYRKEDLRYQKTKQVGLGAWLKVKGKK", "assay": "APA amplification of Neisseria gonorrhea DNA with SDS, with or without HPβCD", "type": "biochemical", "conditions": "no protective agent (absence of βCD); 500 copies N. gonorrhea genomic DNA; APA at 68° C.", "description": "This example provides SDS complexation analyses of the methods and compositions provided herein. […] Anionic detergent SDS at >0.01% is inhibitory to APA amplification of DNA, but the presence of the protective agent hydroxypropyl β-CD (βCD) allowed amplification to proceed despite≤0.2% SDS. The kinetics of hydroxypropyl β-CD sequestration of SDS were thus sufficiently rapid at a molar ratio of 2:1 (˜14 mM: −7 mM) to prevent 9° Nm™ DNA polymerase inactivation by SDS.\nStandard APA reactions with or without 4% Sigma 389145 HPβCD containing “hot-start” CleanAmp™ deoxynucleotides (CAdNTP) and a sequence-specific molecular beacon detection probe were performed with lyophilized ((supplemented with dextran 40, Trehalose), FIG. 2B) or “wet” (no HPβCD, FIG. 2A) reagents including Tris pH 8.4, KCl, MgSO4, and (NH4)2SO4 Triton X-100, 9° Nm™ DNA polymerase, CAdNTP, primers and probe. For the lyophilized reactions, samples were prepared in 50 μl solution containing MgSO4, and (NH4)2SO4 with (shapes) or without (dashed) 500 copies of N. gonorrhea genomic DNA. After dried reagents were dissolved with the samples, various amounts of SDS were added, as indicated, and solutions were vortexed. For the wet reactions, 45 μl master mix containing all reaction components was added to 5 μl sample containing 1OX SDS (final concentration as indicated), with and without 500 copies of N. gonorrhea genomic DNA. Activation of CAdNTP by 2 minutes 90° C. was followed by APA at 68° C. for 10 minutes with detection of the NG amplification product by fluorescence collected every 15 seconds."}, "[2]": {"molecular_target": "T1, RNase A (Bos taurus, UniProt P61823)", "T1 sequence (P61823 27-150)": "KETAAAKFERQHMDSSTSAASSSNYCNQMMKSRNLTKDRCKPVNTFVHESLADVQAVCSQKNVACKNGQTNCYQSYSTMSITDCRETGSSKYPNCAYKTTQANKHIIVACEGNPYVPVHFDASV", "assay": "Requirements for irreversible RNase inactivation (influenza B RNA APA in presence of RNase A)", "type": "biochemical", "conditions": "500 ng RNase A (10 μg/ml); additions 0.2% SDS, 10 mM DTT, 0.1% Triton X-100 as labelled; 2 minutes at 58° C.; then 4% βCD"}, "[3]": {"test_system": "nasal swab ribonucleases", "assay": "Protection of RNA from nasal swab ribonucleases (influenza B RNA APA)", "type": "biochemical, human"}, "[4]": {"molecular_target": "T1, RNase A", "assay": "RNase Alert assay of RNase A activity recovery after SDS/DTT pretreatment", "type": "biochemical", "conditions": "2 ng RNase A, 2 minutes at 58° C.; 10 mM DTT and/or 0.2% SDS; then 4% βCD", "description": "2 ng RNase A was incubated 2 minutes at 58° C. in […] solutions containing either 10 mM DTT+0.2% SDS (+), 0.2% SDS (triangle), 10 mM DTT (square), or neither (solid line) and then the RNase Alert assay was used to study the recovery of any RNase activity upon sequestration of SDS after dissolving lyophilized APA reagents without enzymes but containing RNase Alert substrate and protective agent (4% βCD) with continued incubation and fluorescence data collection at 58° C. In the presence of RNase activity, the RNase alert indicator substrate releases detectable fluorescence. […] FIG. 11A depicts recovery of RNase A activity after identical pretreatment without addition of βCD, in this case monitoring activity in […] of the solution by transfer to an RNase alert “wet” reaction format. […] Thus, as shown here, simultaneous treatment with ionic detergent and reducing agent is required for successful irreversible inactivation under the conditions described herein. […] Without being bound by any particular theory, this may be related to the impact of cyclodextrin and other APA additives on the refolding process. This example also provides further confirmation that the prior art and currently available methods (e.g, employing a reducing agent but no denaturant) are inadequate under these conditions, with an independent, commercially available RNase assay."}, "[5]": {"molecular_target": "T1, RNase A", "assay": "Influenza B virus APA assay with RNase A in ELB (Elution/Lysis Buffer)", "type": "biochemical", "conditions": "RNAse A 10 μg/ml; 2 minutes 58° C. in ELB with 0.2% SDS, without or with 10 mM DTT; β-CD 4% final", "description": "FIGS. 12A-12B depict data related to RNase A inactivation in an influenza B assay like the one in Example 4, with DTT in ELB (Elution/Lysis Buffer). […] After incubation, lyophilized APA reagents co-incubated 2 minutes 58° C., containing β-CD (4% final) were dissolved with the heated solutions, and FAM fluorescence collected every 15 seconds to monitor APA. […] The inclusion of DTT enables unimpeded operation of this POC influenza detection system in a mock sample containing very high level of purified RNase A ([…]). Moreover, while currently available methods can only achieve irreversible ribonuclease inactivation at a maximum 200 ng/ml, the compositions and methods provided herein show utility with 10 μg/ml to accommodate potentially larger amounts in patient samples."}, "[6]": {"test_system": "nasal ribonuclease", "assay": "Rapid irreversibility of nasal ribonuclease inactivation (RNase alert assay)", "type": "biochemical", "conditions": "0.2% SDS with or without 40 mM cysteine, 60° C.; immediately diluted into 4% β-cyclodextrin", "description": "FIG. 13 depicts data related to the rapid irreversibility of nasal ribonuclease inactivation. 5 μl concentrated nasal swab eluate in TE, an amount equivalent to 2% on a typical nasal swab, was mixed with 45 μl of either lysis buffer containing 0.2% SDS (RBS, solid line), RBS containing 40 mM cysteine (squares), or water (dotted line) all preheated to 60° C. 5 μl was immediately diluted into 45 μl 4% β-cyclodextrin to sequester detergent. The recovered RNase activity was determined with an RNase alert assay; as control for the assay, an equivalent amount of nasal swab eluate was directly added without prior treatment (X). […] Unexpectedly, the effectively irreversible inactivation of ribonucleases thus observed during the practice of this invention was virtually instantaneous (monitored by directly testing ribonuclease activity), unlike prior art methods based upon heat. Also shown in this example is that the inactivation properties described for RNase A are also attributable to ribonucleases naturally occurring in nasal exudates."}, "[7]": {"molecular_target": "Taq polymerase (Thermus aquaticus, UniProt P19821)", "sequence (P19821 whole entry)": "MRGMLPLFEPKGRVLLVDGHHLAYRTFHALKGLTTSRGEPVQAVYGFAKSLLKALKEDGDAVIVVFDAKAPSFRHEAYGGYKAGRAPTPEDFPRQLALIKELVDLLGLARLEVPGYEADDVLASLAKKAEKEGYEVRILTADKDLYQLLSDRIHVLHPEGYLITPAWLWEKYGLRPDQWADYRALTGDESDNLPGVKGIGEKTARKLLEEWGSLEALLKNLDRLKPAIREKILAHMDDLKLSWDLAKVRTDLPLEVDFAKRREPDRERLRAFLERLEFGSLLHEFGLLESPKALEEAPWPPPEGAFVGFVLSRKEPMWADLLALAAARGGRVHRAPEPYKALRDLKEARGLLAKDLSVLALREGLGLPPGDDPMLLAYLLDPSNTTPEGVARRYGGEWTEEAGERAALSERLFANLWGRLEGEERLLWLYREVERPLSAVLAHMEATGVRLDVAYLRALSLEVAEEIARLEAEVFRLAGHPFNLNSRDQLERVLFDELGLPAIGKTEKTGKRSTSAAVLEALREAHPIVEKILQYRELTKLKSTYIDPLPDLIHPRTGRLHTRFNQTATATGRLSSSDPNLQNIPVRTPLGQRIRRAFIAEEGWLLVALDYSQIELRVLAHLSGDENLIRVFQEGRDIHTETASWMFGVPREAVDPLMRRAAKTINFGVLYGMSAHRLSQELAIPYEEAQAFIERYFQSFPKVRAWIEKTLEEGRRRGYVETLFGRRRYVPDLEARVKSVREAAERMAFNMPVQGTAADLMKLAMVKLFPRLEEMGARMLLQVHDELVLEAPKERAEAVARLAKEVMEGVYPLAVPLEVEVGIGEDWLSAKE", "conditions": "cited from earlier work"}}, "data": [{"smiles": "CCCCCCCCCCCCOS(=O)(=O)[O-].[Na+]", "note": "[SDS, sodium dodecyl sulfate]", "values": [{"measurement": "SDS concentration inhibitory to APA amplification of DNA", "setting": "[1]", "value": "> 0.01", "unit": "%"}, {"measurement": "Influenza B RNA detection by APA after RNase A pretreatment", "setting": "[2]", "value": "did not prevent significant restoration of RNase A activity"}, {"measurement": "RNA detectability eliminated by recovered RNase activity (assay calibration)", "setting": "[3]; 0.2% SDS without DTT, 2-minute incubation at 58° C.", "value": "> 95", "unit": "%"}, {"measurement": "Influenza B RNA detection after nasal swab eluate pretreatment and SDS sequestration", "setting": "[3]; nasal swab eluate 4% of swab, 0.2% SDS with or without 10 mM DTT, 2 minutes at 58° C., then 4% βCD", "value": "no detection"}, {"measurement": "Recovery of RNase A activity after pretreatment, with βCD", "setting": "[4]", "value": "virtually full recovery of enzyme activity"}, {"measurement": "Influenza B virus APA performance in presence of RNAse A", "setting": "[5]", "value": "recovery of inhibitory levels of RNAse A"}, {"measurement": "Reversibility of nasal RNase inactivation after SDS sequestration", "setting": "[6]", "value": "virtually completely reversible"}, {"measurement": "SDS concentration with inhibitory effect for PCR with Taq polymerase", "setting": "[7]", "value": "greater than 0.01 % (w/v)"}]}]}
